In patent publication US20080280879A1, “SUBSTITUTED HETEROCYCLIC DERIVATIVES AND THEIR PHARMACEUTICAL USE AND COMPOSITIONS” (priority 2007, published 2008):
Converted amounts (≈) assume the structure as drawn.

How the values were obtained:
Format in all cases: cell-based, Staphylococcus aureus
[1] = system: Staph aureus 2811; test: MIC, microtiter broth dilution (CLSI M7-A7), Assay 1, Table 12 column D, no serum; details: for MIC, column D: Staph aureus 2811, Assay 1, no serum; for MIC: Staphylococcus aureus, 2811, Staph aureus 2811, Assay 1, no serum
Procedure: (§1) The assays described herein include a panel of bacterial isolates of Staphylococcus aureus. Assay 1 comprises the strains noted in Columns A through E, and Assay 2 comprises the strains noted in Columns F through H. The assays are performed in microtiter trays according to Methods for Dilution Antimicrobial Susceptibility Tests for Bacteria that Grow Aerobically; Approved Standard-7th edition (M7-A7) and interpreted according to the Performance Standards for Antimicrobial Susceptibility Testing; 16th Informational Supplement (M100-S16) published by Clinical Laboratory Standards Institute (CLSI). The antibacterial activity is presented in the form of a minimum inhibitory concentration (MIC) value in μg/ml format. The MIC value represents the lowest concentration of drug measured which prevented macroscopically visible growth under the conditions and specific doses tested. The compounds were initially dissolved in DMSO as 30 mM stocks and diluted accordingly to adjust to a concentration of 10 mg/ml or the compounds were dissolved in DMSO at a concentration of 10 mg/ml. For assessment of activity in the presence of human serum, S. aureus 1146 and S. aureus 1031 were inoculated into Mueller-Hinton Broth with 50% pooled inactivated human serum. In some cases, compounds were tested more than once in a particular assay. Where noted, the MIC value shown in Table 12 represents the geometric mean of the data from multiple runs.
(§2) It should be understood that the data in columns A-H represents MIC data in μg/ml and the notation “<=” means ‘less than or equal to’.

[2] = system: Staph aureus 1146; test: MIC in Mueller-Hinton Broth with 50% pooled inactivated human serum, Assay 1, Table 12; details: for MIC, column C: Staph aureus 1146, Assay 1, 50% human serum; for MIC: Staphylococcus aureus, 1146, Staph aureus 1146, Assay 1, 50% human serum, read-out: MIC, column C
Procedure: as §1, §2

[3] = system: Staph aureus 1146; test: MIC, microtiter broth dilution (CLSI M7-A7), Assay 1, Table 12 column B, no serum; details: for MIC, column B: Staph aureus 1146, Assay 1, no serum; for MIC: Staphylococcus aureus, 1146, Staph aureus 1146, Assay 1, no serum
Procedure: as §1, §2

[4] = system: Staph aureus 1095 MRSA; test: MIC, microtiter broth dilution (CLSI M7-A7), Assay 1, Table 12 column A, no serum; details: Assay 1, no serum; for MIC: Staphylococcus aureus, MRSA
Procedure: as §1, §2

[5] = system: Staph aureus 2812; test: MIC, microtiter broth dilution (CLSI M7-A7), Assay 1, Table 12 column E, no serum; details: for MIC, column E: Staph aureus 2812, Assay 1, no serum; for MIC: Staphylococcus aureus, 2812, Staph aureus 2812, Assay 1, no serum
Procedure: as §1, §2

Compound	MIC, column D [1]	MIC, column C [2]	MIC, column B [3]	MIC, column A [4]	MIC, column E [5]	MIC [1] [µg/mL]	MIC [2] [µg/mL]	MIC [3] [µg/mL]	MIC [4] [µg/mL]	MIC [5] [µg/mL]
3-{[2-(3-chloro-6-methoxyquinolin-4-yl)ethyl]amino}-1-(cis-3-phenylcyclobutyl)pyrrolidine-3-carboxylic acid [Example 113]	0.125 µg/mL	16 µg/mL	<=.0625 μg/ml	0.125 µg/mL	0.25 µg/mL					
3-{[2-(3-chloro-8-methoxyquinolin-4-yl)ethyl]amino}-1-(trans-3-phenylcyclobutyl)pyrrolidine-3-carboxylic acid [Example 114]	0.5 µg/mL	>64 µg/mL	0.5 µg/mL	1 µg/mL	0.5 µg/mL					
COc1ccc2ncc(F)c(C(O)CC[C@@H]3CCN(C4CC(c5ccccc5)C4)C[C@@H]3C(=O)O)c2c1 (mixture of isomers) [Example 14, (3R,4R)-4-[3-(3-fluoro-6-methoxyquinolin-4-yl)-3-hydroxypropyl]-1-(3-phenylcyclobutyl)piperidine-3-carboxylic acid]						≤ 0.0947	≤ 0.379	0.158	≤ 0.0947	≤ 0.0947
COc1ccc2nccc(C(O)CC[C@@H]3CCN(C4CC(O)(c5ccccc5)C4)C[C@@H]3C(=O)O)c2c1 (mixture of isomers) [Example 95, (3R,4R)-4-[3-hydroxy-3-(6-methoxyquinolin-4-yl)propyl]-1-(3-hydroxy-3-phenylcyclobutyl)piperidine-3-carboxcylic acid]	>64 µg/mL	>64 µg/mL	16 µg/mL	>64 µg/mL	>64 µg/mL					
COc1ccc2nccc(C(O)CC[C@@H]3CCN(C4CC(O)(c5ccccc5)C4)C[C@@H]3C(=O)O)c2c1 (mixture of isomers) [Example 96, (3R,4R)-4-[3-hydroxy-3-(6-methoxyquinolin-4-yl)propyl]-1-(3-hydroxy-3-phenylcyclobutyl)piperidine-3-carboxcylic acid]	>64 µg/mL	>64 µg/mL	8 µg/mL	>64 µg/mL	>64 µg/mL					
COc1ccc2nccc(C(O)CC[C@@H]3CCN(CC4CC(c5ccccc5)C4)C[C@@H]3C(=O)O)c2c1 (mixture of isomers) [Example 177, (3R,4R)-4-[3-hydroxy-3-(6-methoxyquinolin-4-yl)propyl]-1-[(3-phenylcyclobutyl)methyl]piperidine-3-carboxylic acid]						4	32	4	8	8
O=C(O)[C@H]1CN(C2CC(c3cc(F)ccc3F)C2)CC[C@H]1CCC(O)c1c(F)cnc2ccc(O)nc12 (mixture of isomers) [Example 206, (3R,4R)-1-[3-(2,5-difluorophenyl)cyclobutyl]-4-[3-(3-fluoro-6-hydroxy-1,5-naphthyridin-4-yl)-3-hydroxypropyl]piperidine-3-carboxylic acid]						2	16	2	4	4
COc1ccc2nccc(C(O)CCC3CCN(C[C@@H]4C[C@H]4c4ccccc4)CC3C(=O)O)c2c1 (relative stereo) [Example 25, 4-[3-hydroxy-3-(6-methoxyquinolin-4-yl)propyl]-1-{[(trans)-2-phenylcyclopropyl]methyl}piperidine-3-carboxylic acid]						1 (≈ 2.11 µM)	4 (≈ 8.43 µM)	2 (≈ 4.21 µM)	2 (≈ 4.21 µM)	1 (≈ 2.11 µM)
COc1ccc2nccc(C(O)CCC3CCN(C[C@@H]4C[C@H]4c4cc(F)ccc4F)CC3C(=O)O)c2c1 (relative stereo) [Example 26, 1-{[(trans)-2-(2,5-difluorophenyl)cyclopropyl]methyl}-4-[3-hydroxy-3-(6-methoxyquinolin-4-yl)propyl] piperidine-3-carboxylic acid]						0.25 (≈ 0.49 µM)	4 (≈ 7.83 µM)	0.25 (≈ 0.49 µM)	1 (≈ 1.96 µM)	0.25 (≈ 0.49 µM)
COc1ccc2ncc(F)c(C(O)CC[C@@H]3CCN(C4CC(c5ccccc5)C4)C[C@@H]3C(=O)O)c2c1 (single isomer, unassigned) [Example 15]		0.25 µg/mL (≈ 0.508 µM)	0.0156 µg/mL (≈ 0.0317 µM)		0.03125 µg/mL (≈ 0.0634 µM)	0.0625 (≈ 0.127 µM)			0.0884 (≈ 0.179 µM)	
COc1ccc2ncc(F)c(C(O)CC[C@@H]3CCN(C4CC(c5ccccc5)C4)C[C@@H]3C(=O)O)c2c1 (single isomer, unassigned) [Example 16]	0.125 µg/mL (≈ 0.254 µM)	1 µg/mL (≈ 2.03 µM)	<=.0884 μg/ml	0.125 µg/mL (≈ 0.254 µM)	0.125 µg/mL (≈ 0.254 µM)					
COc1ccc2ncc(F)c(C(O)CC[C@@H]3CCN(C4CC(c5c(F)cccc5F)C4)C[C@@H]3C(=O)O)c2c1 (single isomer, unassigned) [Example 18]						≤ 0.0625	0.25 (≈ 0.473 µM)	≤ 0.0625	≤ 0.0625	≤ 0.0625
COc1ccc2ncc(F)c(C(O)CC[C@@H]3CCN(C4CC(c5c(F)cccc5F)C4)C[C@@H]3C(=O)O)c2c1 (single isomer, unassigned) [Example 19]	<=.0625 μg/ml	0.5 µg/mL (≈ 0.946 µM)	<=.0625 μg/ml	<=.0625 μg/ml	<=.0625 μg/ml					
COc1ccc2nccc(C(O)CC[C@@H]3CCN(C4CC(c5c(F)cccc5F)C4)C[C@@H]3C(=O)O)c2c1 (single isomer, unassigned) [Example 27]						≤ 0.0625	0.353 (≈ 0.692 µM)	≤ 0.125	≤ 0.0625	≤ 0.0625
COc1ccc2ncc(F)c(C(O)CC[C@@H]3CCN(C4CC(c5cc(F)ccc5F)C4)C[C@@H]3C(=O)O)c2c1 (single isomer, unassigned) [Example 59]		<=.0625 μg/ml				≤ 0.0625		≤ 0.0625	≤ 0.0625	≤ 0.0625
COc1ccc2ncc(F)c(C(O)CC[C@@H]3CCN(C4CC(c5cc(F)ccc5F)C4)C[C@@H]3C(=O)O)c2c1 (single isomer, unassigned) [Example 60]	<=.0625 μg/ml	4 µg/mL (≈ 7.57 µM)	<=.0625 μg/ml	0.125 µg/mL (≈ 0.236 µM)	<=.0625 μg/ml					
COc1ccc2ncc(Cl)c([C@@H](O)CNC3(C(=O)O)CCCN(C4CC(c5ccccc5)C4)CC3)c2c1 (single isomer, unassigned) [Example 147]						1 (≈ 1.91 µM)	4 (≈ 7.63 µM)	1 (≈ 1.91 µM)	8 (≈ 15.3 µM)	1 (≈ 1.91 µM)
COc1ccc2ncc(Cl)c([C@@H](O)CNC3(C(=O)O)CCCN(C4CC(c5ccccc5)C4)CC3)c2c1 (single isomer, unassigned) [Example 148]	1 µg/mL (≈ 1.91 µM)	4 µg/mL (≈ 7.63 µM)	1 µg/mL (≈ 1.91 µM)	4 µg/mL (≈ 7.63 µM)	1 µg/mL (≈ 1.91 µM)					
COc1ccc2ncc(F)c([C@@H](O)CNC3(C(=O)O)CCCN(C4CC(c5ccccc5)C4)CC3)c2c1 (single isomer, unassigned) [Example 149]						2 (≈ 3.94 µM)	4 (≈ 7.88 µM)	2 (≈ 3.94 µM)	8 (≈ 15.8 µM)	2 (≈ 3.94 µM)
COc1ccc2nccc(C(O)CC[C@@H]3CCN(C4CC(c5cccc(F)c5F)C4)C[C@@H]3C(=O)O)c2c1 (stereo partly drawn) [Example 58, (3R,4R)-1-[3-(2,3-difluorophenyl)cyclobutyl]-4-[3-hydroxy-3-(6-methoxyquinolin-4-yl)propyl] piperidine-3-carboxylic acid]		2 µg/mL (≈ 3.92 µM)								
COc1ccc2nccc([C@@H](O)CC[C@@H]3CCN(C4CC(c5ccc(-c6ccccc6)cc5)C4)C[C@@H]3C(=O)O)c2c1 (stereo partly drawn) [Example 70, (3R,4R)-1-(3-biphenyl-4-ylcyclobutyl)-4-[(3S)-3-hydroxy-3-(6-methoxyquinolin-4-yl)propyl] piperidine-3-carboxylic acid]				>64 µg/mL						
COc1ccc2ncc(F)c(C(O)CC[C@@H]3CCN(C4CC(Sc5cc(F)ccc5F)C4)C[C@@H]3C(=O)O)c2c1 (stereo partly drawn) [Example 229, (3R,4R)-1-[3-(2,5-Difluoro-phenylsulfanyl)-cyclobutyl]-4-[(S)-3-(3-fluoro-6-methoxy-quinolin-4-yl)-3-hydroxy-propyl]-piperidine-3-carboxylic acid]							32 (≈ 57.1 µM)			
